Measurements from patent publication US11795204B2 (Zealand Pharma A/S, priority 2012, dated 2023).
Square brackets hold non-standard residues; d marks the D form. Peptide text beside a SMILES is read from it. Dab = NCC[C@H](N)C(=O)O; Aib = CC(C)(N)C(=O)O

Columns and labels:
[1] = Chemical stability assessment (RP-HPLC normalized purity); type: physicochemical; conditions: for Normalized purity pH 4.0 after 14 days: 1 mg/ml in 50 mM acetate buffer pH 4.0, 40° C.; for Normalized purity pH 7.5 after 14 days: 1 mg/ml in 50 mM phosphate buffer pH 7.5, 40° C.
Method: Samples were placed in glass vials and incubated at 40° C. The samples were analysed by reverse-phase HPLC on a C18 column with gradient elution using an acetonitrile/trifluoroacetic acid/water eluent system. The area-percentage (area-%) of the main peak after incubation time T=t (relative to time T=0) was detected by UV spectrometry at 220 nm. The purity was first determined as follows: Purity(area-%)=(area of main peak/total area of all peaks)×100. […] Normalized purity values in Table 2 were determined after 14 days of incubation.

[2] = physchem; conditions: pH 7.5
Method: A stock solution of the test peptide (2 mg/ml; determined by measurement of the absorption of the solution at 280 nm, and using the theoretical extension coefficient based on the content of tryptophan and tyrosine in the peptide) in demineralized water adjusted to pH 2.5 with HCl was prepared, and aliquots were diluted 1:1 in 100 mM acetate buffer (pH 4.0) and 100 mM phosphate buffer (pH 7.5), respectively, and loaded in a standard flat-bottom, non-sterile 96-well UV Microplate. The absorbance of samples (single samples, n=1) at 280 and 325 nm was measured in an absorbance-based plate reader, which was preheated to ambient temperature.

[3] = target: T1, human Glucagon-R (Homo sapiens, UniProt P47871); assay: Glucagon receptor assay (cAMP induction, AlphaScreen); type: cell-based; conditions: HEK293 cells expressing the human Glucagon-R, 15 min at 37° C., read-out: GCG-R EC50 in vitro
T1 construct: expressed in transfected cells
Method: The 5′-end primers additionally encoded a near-Kozak consensus sequence to ensure efficient translation. […] 48 hr after transfection, cells were seeded for limited dilution cloning and selected with 1 mg/ml G418 in the culture medium.
On the day of analysis, growth medium was removed and the cells were washed once with […] of the included Assay buffer with IBMX. Cells were incubated in […] Assay buffer/IBMX containing increasing concentrations of test peptides for 15 min at 37° C. Then the peptides/Assay buffer was removed and cells were lysed by addition of […] Lysis buffer pr. well and incubation for at least 10 min at room temperature. From each well […] cell lysate was transferred to a 384-well OptiPlate and mixed with Donor and Acceptor beads and incubated for 1 h at room temperature. The cAMP content was measured on an Envision plate reader.

T1 sequence (P47871 26-477): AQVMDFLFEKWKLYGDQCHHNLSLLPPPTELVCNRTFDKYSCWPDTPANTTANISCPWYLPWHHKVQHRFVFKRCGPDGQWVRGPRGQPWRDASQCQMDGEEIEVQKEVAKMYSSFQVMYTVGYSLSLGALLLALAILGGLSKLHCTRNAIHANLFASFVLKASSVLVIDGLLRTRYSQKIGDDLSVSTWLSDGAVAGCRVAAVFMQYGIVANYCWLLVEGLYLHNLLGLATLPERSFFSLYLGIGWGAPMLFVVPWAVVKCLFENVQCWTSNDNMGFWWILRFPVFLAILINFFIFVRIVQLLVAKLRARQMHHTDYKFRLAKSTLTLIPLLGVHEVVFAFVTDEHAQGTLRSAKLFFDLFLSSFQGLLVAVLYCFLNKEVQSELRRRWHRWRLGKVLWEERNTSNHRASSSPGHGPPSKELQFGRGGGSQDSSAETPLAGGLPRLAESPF

Compound	Normalized purity pH 4.0 after 14 days [1]	Normalized purity pH 7.5 after 14 days [1]	solubility [2]	EC50 [3]
CNC(=O)CC[C@H](NC(=O)[C@H](CO)NC(=O)[C@@H](N)Cc1c[nH]cn1)C(=O)NCC(=O)N[C@H](C(=O)N[C@@H](Cc1ccccc1)C(=O)N[C@H](C(=O)N[C@@H](CO)C(=O)N[C@@H](CC(=O)O)C(=O)N[C@@H](Cc1ccc(O)cc1)C(=O)N[C@@H](CO)C(=O)N[C@@H](CCCCN)C(=O)N[C@@H](Cc1ccc(O)cc1)C(=O)N[C@@H](CC(C)C)C(=O)N[C@@H](CC(=O)O)C(=O)NC(C)(C)C(=O)N[C@@H](C)C(=O)N[C@@H](CCCNC(=N)N)C(=O)N[C@@H](C)C(=O)N[C@@H](CCC(=O)O)C(=O)N[C@@H](CO)C(=O)N[C@@H](Cc1ccccc1)C(=O)N[C@H](C(=O)N[C@@H](CCCCN)C(=O)N[C@@H](Cc1c[nH]c2ccccc12)C(=O)N[C@@H](CC(C)C)C(=O)N[C@@H](CCC(=O)O)C(=O)N[C@@H](CO)C(=O)N[C@H](C(=O)O)[C@@H](C)O)C(C)C)[C@@H](C)O)[C@@H](C)O [Compound 26] (H-HSE(NHMe)GTFTSDYSKYLD[Aib]ARAESFVKWLEST-OH)	90%	93.9%	≥ 1000 µg/mL	0.0069 nM
H-HSQGTFTSDYSKYLDSARAEDFVKWLEET-OH [Compound 2]	83.5%	86.2%	≥ 1000 µg/mL	0.18 nM
H-HSQGTFTSDYSKYLDEARAEDFVKWLEST-OH [Compound 14]	89.5%	92.4%	≥ 1000 µg/mL	0.15 nM
CC(C)C[C@H](NC(=O)[C@H](Cc1c[nH]c2ccccc12)NC(=O)[C@H](CCCCN)NC(=O)[C@@H](NC(=O)[C@H](Cc1ccccc1)NC(=O)[C@H](CO)NC(=O)[C@H](CCC(=O)O)NC(=O)[C@H](C)NC(=O)[C@H](CCCNC(=N)N)NC(=O)[C@H](CCCNC(=N)N)NC(=O)C(C)(C)NC(=O)[C@H](CC(=O)O)NC(=O)[C@H](CC(C)C)NC(=O)[C@H](Cc1ccc(O)cc1)NC(=O)[C@H](CCCCN)NC(=O)[C@H](CO)NC(=O)[C@H](Cc1ccc(O)cc1)NC(=O)[C@H](CC(=O)O)NC(=O)[C@H](CO)NC(=O)[C@@H](NC(=O)[C@H](Cc1ccccc1)NC(=O)[C@@H](NC(=O)CNC(=O)[C@H](CCC(N)=O)NC(=O)[C@H](CO)NC(=O)[C@@H](N)Cc1c[nH]cn1)[C@@H](C)O)[C@@H](C)O)C(C)C)C(=O)N[C@@H](CCC(=O)O)C(=O)N[C@@H](CO)C(=O)N[C@H](C(=O)O)[C@@H](C)O [Compound 25] (H-HSQGTFTSDYSKYLD[Aib]RRAESFVKWLEST-OH)	93.8%	89.8%	≥ 1000 µg/mL	0.0066 nM
H-HSQGTFTSDLSKYLDSARAEDFVKWLEST-OH [Compound 11]	78.6%	89.9%	≥ 1000 µg/mL	0.11 nM
H-HSQGTFTSDYSKYLDSARAEDFVKWLES-OH [Compound 13]	84.6%	88.8%	≥ 1000 µg/mL	0.07 nM
H-HSQGTFTSDYSKYLESARAESFVKWLEST-OH [Compound 16]	89.1%	–	≥ 1000 µg/mL	0.39 nM
CC(C)C[C@H](NC(=O)[C@H](Cc1c[nH]c2ccccc12)NC(=O)[C@H](CCC(=O)O)NC(=O)[C@@H](NC(=O)[C@H](Cc1ccccc1)NC(=O)[C@H](CO)NC(=O)[C@H](CCCCN)NC(=O)[C@H](C)NC(=O)[C@H](CCCNC(=N)N)NC(=O)[C@H](C)NC(=O)C(C)(C)NC(=O)[C@H](CC(=O)O)NC(=O)[C@H](CC(C)C)NC(=O)[C@H](Cc1ccc(O)cc1)NC(=O)[C@H](CCCCN)NC(=O)[C@H](CO)NC(=O)[C@H](Cc1ccc(O)cc1)NC(=O)[C@H](CC(=O)O)NC(=O)[C@H](CO)NC(=O)[C@@H](NC(=O)[C@H](Cc1ccccc1)NC(=O)[C@@H](NC(=O)CNC(=O)[C@H](CCC(N)=O)NC(=O)[C@H](CO)NC(=O)[C@@H](N)Cc1c[nH]cn1)[C@@H](C)O)[C@@H](C)O)C(C)C)C(=O)N[C@@H](CCC(=O)O)C(=O)N[C@@H](CCCCN)C(=O)N[C@H](C(=O)O)[C@@H](C)O [Compound 29] (H-HSQGTFTSDYSKYLD[Aib]ARAKSFVEWLEKT-OH)	91%	91.6%	≥ 1000 µg/mL	0.023 nM
CC(=O)NCC[C@H](NC(=O)[C@H](CO)NC(=O)[C@@H](N)Cc1c[nH]cn1)C(=O)NCC(=O)N[C@H](C(=O)N[C@@H](Cc1ccccc1)C(=O)N[C@H](C(=O)N[C@@H](CO)C(=O)N[C@@H](CC(=O)O)C(=O)N[C@@H](Cc1ccc(O)cc1)C(=O)N[C@@H](CO)C(=O)N[C@@H](CCCCN)C(=O)N[C@@H](Cc1ccc(O)cc1)C(=O)N[C@@H](CC(C)C)C(=O)N[C@@H](CC(=O)O)C(=O)NC(C)(C)C(=O)N[C@@H](C)C(=O)N[C@@H](CCCNC(=N)N)C(=O)N[C@@H](C)C(=O)N[C@@H](CCC(=O)O)C(=O)N[C@@H](CO)C(=O)N[C@@H](Cc1ccccc1)C(=O)N[C@H](C(=O)N[C@@H](CCCCN)C(=O)N[C@@H](Cc1c[nH]c2ccccc12)C(=O)N[C@@H](CC(C)C)C(=O)N[C@@H](CCC(=O)O)C(=O)N[C@@H](CO)C(=O)N[C@H](C(N)=O)[C@@H](C)O)C(C)C)[C@@H](C)O)[C@@H](C)O [Compound 24] (H-HS[Dab](Ac)GTFTSDYSKYLD[Aib]ARAESFVKWLEST-NH2)	92.8%	94.4%	≥ 1000 µg/mL	0.0078 nM
CC(C)C[C@H](NC(=O)[C@H](Cc1c[nH]c2ccccc12)NC(=O)[C@H](C)NC(=O)[C@@H](NC(=O)[C@H](Cc1ccccc1)NC(=O)[C@H](CCC(=O)O)NC(=O)[C@H](CCC(=O)O)NC(=O)[C@H](C)NC(=O)[C@H](CCCNC(=N)N)NC(=O)[C@H](C)NC(=O)C(C)(C)NC(=O)[C@H](CC(=O)O)NC(=O)[C@H](CC(C)C)NC(=O)[C@H](Cc1ccc(O)cc1)NC(=O)[C@H](CCCCN)NC(=O)[C@H](CO)NC(=O)[C@H](Cc1ccc(O)cc1)NC(=O)[C@H](CC(=O)O)NC(=O)[C@H](CO)NC(=O)[C@@H](NC(=O)[C@H](Cc1ccccc1)NC(=O)[C@@H](NC(=O)CNC(=O)[C@H](CCC(N)=O)NC(=O)[C@H](CO)NC(=O)[C@@H](N)Cc1c[nH]cn1)[C@@H](C)O)[C@@H](C)O)C(C)C)C(=O)N[C@@H](CCC(=O)O)C(=O)N[C@@H](CO)C(=O)N[C@H](C(=O)O)[C@@H](C)O [Compound 35] (H-HSQGTFTSDYSKYLD[Aib]ARAEEFVAWLEST-OH)	–	–	≥ 1000 µg/mL	0.014 nM
CC(C)C[C@H](NC(=O)[C@H](Cc1c[nH]c2ccccc12)NC(=O)[C@H](CCCCN)NC(=O)[C@@H](NC(=O)[C@H](Cc1ccccc1)NC(=O)[C@H](CCC(=O)O)NC(=O)[C@H](CCC(=O)O)NC(=O)[C@H](C)NC(=O)[C@H](CCCNC(=N)N)NC(=O)[C@H](C)NC(=O)C(C)(C)NC(=O)[C@H](CC(=O)O)NC(=O)[C@H](CC(C)C)NC(=O)[C@H](Cc1ccc(O)cc1)NC(=O)[C@H](CCCCN)NC(=O)[C@H](CO)NC(=O)[C@H](Cc1ccc(O)cc1)NC(=O)[C@H](CC(=O)O)NC(=O)[C@H](CO)NC(=O)[C@@H](NC(=O)[C@H](Cc1ccccc1)NC(=O)[C@@H](NC(=O)CNC(=O)[C@H](Cc1c[nH]cn1)NC(=O)[C@H](CO)NC(=O)[C@@H](N)Cc1c[nH]cn1)[C@@H](C)O)[C@@H](C)O)C(C)C)C(=O)N[C@@H](CCC(=O)O)C(=O)N[C@@H](CO)C(=O)N[C@H](C(N)=O)[C@@H](C)O [Compound 38] (H-HSHGTFTSDYSKYLD[Aib]ARAEEFVKWLEST-NH2)	–	–	≥ 1000 µg/mL	0.0047 nM
H-HSQGTFTSDYSKYLDSARAESFVKWLEST-OH [Compound 1]	–	–	≥ 1000 µg/mL	0.064 nM
CC(=O)NCC[C@H](NC(=O)[C@H](CO)NC(=O)[C@@H](N)Cc1c[nH]cn1)C(=O)NCC(=O)N[C@H](C(=O)N[C@@H](Cc1ccccc1)C(=O)N[C@H](C(=O)N[C@@H](CO)C(=O)N[C@@H](CC(=O)O)C(=O)N[C@@H](Cc1ccc(O)cc1)C(=O)N[C@@H](CO)C(=O)N[C@@H](CCCCN)C(=O)N[C@@H](Cc1ccc(O)cc1)C(=O)N[C@@H](CC(C)C)C(=O)N[C@@H](CC(=O)O)C(=O)NC(C)(C)C(=O)N[C@@H](C)C(=O)N[C@@H](CCCNC(=N)N)C(=O)N[C@@H](C)C(=O)N[C@@H](CCC(=O)O)C(=O)N[C@@H](CCC(=O)O)C(=O)N[C@@H](Cc1ccccc1)C(=O)N[C@H](C(=O)N[C@@H](CCCCN)C(=O)N[C@@H](Cc1c[nH]c2ccccc12)C(=O)N[C@@H](CC(C)C)C(=O)N[C@@H](CCC(=O)O)C(=O)N[C@@H](CO)C(=O)N[C@H](C(N)=O)[C@@H](C)O)C(C)C)[C@@H](C)O)[C@@H](C)O [Compound 40] (H-HS[Dab](Ac)GTFTSDYSKYLD[Aib]ARAEEFVKWLEST-NH2)	–	–	≥ 1000 µg/mL	0.0035 nM
